“Also recorded” adds a separate entry of the source.
Legend:
caspases 9 and 3 = assay: Apoptosis assay: cleavage and activation of caspases 9 and 3, PARP cleavage in INA-6 cells (Western blot); format: cell-based, human; conditions: INA-6, 0.6 μM, 24 hours
Description: Apoptosis Assays. Hsp70-dependent prevention of apoptosis was investigated by analyses of the apoptosis-inducing factors (AIF) and of the caspases 9 and 3 in INA-6 cells. INA-6 cells were treated with 0.6 μM of compound trans-7b for 8 hours prior to analyze nuclear translocation of AIF. Staining of the nuclear protein lamin A was used as a loading control. […] Analysis of cleavage of the bona fide caspase substrate PARP served as a control for caspase activation. Co-treatment with the pan-caspase inhibitor Z-VAD-FMK (50 μM) was employed as another specificity control.
In FIG. 2A Western blot analyses of caspases 9 and 3, and the caspase substrate PARP (upper panel), and viability analyses (lower panel) of INA-6 MM cells upon treatment with trans-7b for 24 hours are shown. […] Lysates were cleared by centrifugation, measured by quantitative protein assay (Bio-Rad, München, Germany) and subjected to SDS gel electrophoresis. […] INA-6 cells were washed in PBS, incubated for 15 minutes in 100 ml binding buffer (10 mM HEPES/NaOH, pH 7.4, 140 mM NaCl, 2.5 mM CaCl2) containing 2.5 mL annexin V-FITC mix and 1 mg/ml PI and analyzed by flow cytometry (FACSCalibur/CELLQuest; Becton Dickinson, Heidelberg, Germany). […] Raw data of three independent experiments have been calculated to establish means, standard deviation and dose-effect curves of trans-7b.

HSP72 = molecular target: T1, HSP72 (Homo sapiens, UniProt P0DMV8); assay: Western blot analysis of HSP72 expression in INA-6 cells; format: cell-based; conditions: INA-6, 0.6 μM, with Z-VAD-FMK 50 μM
T1 construct: endogenous in cells; host or cells: INA-6 multiple myeloma cells
Description: Western Blot Analysis. Protein expression levels were determined with Western blotting procedures (M. Chatterjee, et al., Blood 2002, 100, 3311-3318). Following separation by SDS-PAGE, proteins were transferred onto nitrocellulose membranes (Schleicher & Schuell, Dassel, Germany) and stained with antibodies against Hsp72, Hsp73, Hsp90 (all from Enzo Life Science, Lörrach, Germany), AIF, lamin A, caspases 9 and 3, PARP (all from Santa Cruz, Heidelberg, Germany). An anti-α tubulin antibody (Sigma, Deisenhofen, Germany) was employed to assess equal loading. Secondary antibodies used were anti-rat (Enzo Life Science), anti-rabbit and anti-mouse (both from GE Healthcare, Little Chalfont, UK). […] The heat shock proteins HSP72 and HSP73 critically interact with HSP90 in order to mediate an essential chaperone function for a multitude of proteins including various signaling intermediates. According to an established HSP72/73-dependent client protein signature and its role for survival in MM, the proposed anti-HSP72/73 effect of trans-7b in the INA-6 multiple myeloma (MM) cell line model was evaluated. […] Lysates were cleared by centrifugation, measured by quantitative protein assay (Bio-Rad, München, Germany) and subjected to SDS gel electrophoresis. […]

T1 sequence (P0DMV8 whole entry): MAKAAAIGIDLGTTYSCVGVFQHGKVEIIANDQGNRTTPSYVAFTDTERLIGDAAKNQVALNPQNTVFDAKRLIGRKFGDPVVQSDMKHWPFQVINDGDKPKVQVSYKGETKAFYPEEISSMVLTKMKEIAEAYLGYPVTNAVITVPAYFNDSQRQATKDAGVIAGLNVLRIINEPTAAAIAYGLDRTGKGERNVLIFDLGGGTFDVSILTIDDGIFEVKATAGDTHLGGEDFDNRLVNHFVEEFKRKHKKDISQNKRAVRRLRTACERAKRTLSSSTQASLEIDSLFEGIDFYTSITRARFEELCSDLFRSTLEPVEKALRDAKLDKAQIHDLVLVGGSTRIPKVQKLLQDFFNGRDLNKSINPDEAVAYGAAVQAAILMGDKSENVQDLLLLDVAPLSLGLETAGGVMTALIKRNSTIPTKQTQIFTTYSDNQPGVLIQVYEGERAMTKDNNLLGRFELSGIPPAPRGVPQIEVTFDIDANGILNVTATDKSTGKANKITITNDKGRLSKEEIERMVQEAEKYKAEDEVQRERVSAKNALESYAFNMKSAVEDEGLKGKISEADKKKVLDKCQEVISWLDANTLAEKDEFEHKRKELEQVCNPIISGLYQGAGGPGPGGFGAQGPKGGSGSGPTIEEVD

Structure (SMILES): COc1ccc(C2C(C(=O)Nc3cccc(C)n3)c3ccccc3C(=O)N2c2ccccc2)cc1 (stereo not drawn) [trans-7b, trans-3-(4-Methoxyphenyl)-N-(6-methylpyridin-2-yl)-1-oxo-2-phenyl-1,2,3,4-tetrahydroisoquinoline-4-carboxamide]
- caspase 9 and 3 cleavage/activation (PARP cleavage) (caspases 9 and 3): activation of the caspases 9 and 3; also recorded: sequential caspase 9 and 3 cleavage leading to their activation
- HSP72 constitutive expression level (HSP72): decreases; also recorded: reduced

Reference: patent publication US9975853B2, “Tetrahydroisoquinolinone derivatives and their use in the inhibition of the HSP70 protein” (Julius-Maximilians-Universitaet Wuerzburg, priority 2014, dated 2018)
